Values joined by “and” are separate entries in the source; they are usually repeats but may differ in a detail not shown here. Identical values can stand only once. Like-named read-outs stand apart in the source and are kept apart here.

Here are results for 17 compounds from PMC10421270, “Investigation on Novel E/Z 2-Benzylideneindan-1-One-Based Photoswitches with AChE and MAO-B Dual Inhibitory Activity” (Molecules, 2023).

The target of data set [1] is T1, hAChE (Homo sapiens, UniProt P22303).
T1 construct: purchased Sigma Aldrich (Milan, Italy)
T1 sequence (P22303 32-614): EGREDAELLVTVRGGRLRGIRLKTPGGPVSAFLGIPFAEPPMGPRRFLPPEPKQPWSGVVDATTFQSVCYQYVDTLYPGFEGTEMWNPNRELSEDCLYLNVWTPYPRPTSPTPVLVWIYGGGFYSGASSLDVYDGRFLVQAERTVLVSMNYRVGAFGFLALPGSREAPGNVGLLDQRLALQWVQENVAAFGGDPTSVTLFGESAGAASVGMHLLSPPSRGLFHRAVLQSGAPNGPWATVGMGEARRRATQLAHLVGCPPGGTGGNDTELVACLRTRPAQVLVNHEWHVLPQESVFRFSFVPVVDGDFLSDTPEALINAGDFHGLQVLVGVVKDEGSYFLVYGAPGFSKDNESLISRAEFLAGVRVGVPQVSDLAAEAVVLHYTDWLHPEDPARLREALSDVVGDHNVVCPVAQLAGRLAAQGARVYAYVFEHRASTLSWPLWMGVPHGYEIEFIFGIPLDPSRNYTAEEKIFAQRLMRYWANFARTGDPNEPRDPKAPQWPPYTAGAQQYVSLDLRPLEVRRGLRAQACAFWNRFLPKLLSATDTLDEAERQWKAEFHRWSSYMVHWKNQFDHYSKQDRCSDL
In words: biochemical. The format is biochemical.

A further data set has as its target T2, BChE from human serum (Homo sapiens, UniProt P06276).
T2 construct: BChE from human serum; purchased Sigma Aldrich (Milan, Italy); host or cells: human serum
The data set can be described thus: biochemical. To be noted: for IC50: mean ± SD of three independent measurements; for inhibition at 10 µM: read-out: BChE % inhibition at 10 μM, 10 μM, values in parentheses, n.a. = not active.

A further data set addresses T3, human recombinant MAO-A (Homo sapiens, UniProt P21397).
T3 construct: purchased Sigma Aldrich (Milan, Italy); host or cells: baculovirus-infected insect cells
T3 sequence (P21397 1-527): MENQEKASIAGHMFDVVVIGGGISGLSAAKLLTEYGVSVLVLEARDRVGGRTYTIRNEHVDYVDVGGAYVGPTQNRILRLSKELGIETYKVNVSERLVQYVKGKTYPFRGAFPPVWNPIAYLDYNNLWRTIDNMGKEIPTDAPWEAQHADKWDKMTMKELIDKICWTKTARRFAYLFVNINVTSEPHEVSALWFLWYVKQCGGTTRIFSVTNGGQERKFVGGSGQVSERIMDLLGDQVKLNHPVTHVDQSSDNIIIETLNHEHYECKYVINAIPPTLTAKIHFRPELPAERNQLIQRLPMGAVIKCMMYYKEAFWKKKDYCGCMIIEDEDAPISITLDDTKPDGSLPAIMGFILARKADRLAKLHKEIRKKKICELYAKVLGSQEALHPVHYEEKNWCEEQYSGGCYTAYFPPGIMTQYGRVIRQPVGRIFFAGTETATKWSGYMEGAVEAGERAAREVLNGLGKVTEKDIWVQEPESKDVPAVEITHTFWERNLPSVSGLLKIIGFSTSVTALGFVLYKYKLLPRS
The data set can be described thus: biochemical. To be noted: for inhibition at 10 µM: read-out: MAO-A % inhibition at 10 μM, human MAO-A, values in parentheses; for IC50: MAO-A IC50, human MAO-A, mean ± SD of three independent measurements.

Another data set addresses T4, human recombinant MAO B (Homo sapiens, UniProt P27338).
T4 construct: purchased Sigma Aldrich (Milan, Italy); host or cells: baculovirus-infected insect cells
T4 sequence (P27338 1-520): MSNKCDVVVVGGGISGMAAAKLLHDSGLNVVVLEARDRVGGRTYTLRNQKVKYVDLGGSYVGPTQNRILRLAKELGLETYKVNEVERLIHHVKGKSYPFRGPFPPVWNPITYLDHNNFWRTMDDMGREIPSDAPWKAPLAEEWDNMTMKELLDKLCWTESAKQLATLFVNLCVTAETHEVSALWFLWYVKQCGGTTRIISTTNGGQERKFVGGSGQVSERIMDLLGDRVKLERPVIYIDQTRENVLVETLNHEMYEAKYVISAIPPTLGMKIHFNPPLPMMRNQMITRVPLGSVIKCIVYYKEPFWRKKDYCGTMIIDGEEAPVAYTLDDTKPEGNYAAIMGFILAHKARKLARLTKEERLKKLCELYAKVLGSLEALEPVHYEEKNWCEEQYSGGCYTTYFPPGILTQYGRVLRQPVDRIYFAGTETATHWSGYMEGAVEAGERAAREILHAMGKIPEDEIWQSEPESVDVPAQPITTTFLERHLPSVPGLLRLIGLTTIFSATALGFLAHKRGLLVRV
The data set can be described thus: biochemical. To be noted: mean ± SD of three independent measurements.

Data set [2] has as its target T1, hAChE. The data set can be described thus: AChE inhibition kinetics (Lineweaver–Burk, replot of slopes). The format is biochemical.
Details of data set [3]: method as in PMID 35923722. The following applies: Z isomer, thermal reversion; ref [40]; cited from earlier work.
The nature of data set [4]: UV-B photoisomerization to the photostationary state (1H NMR). The format is physicochemical. The following applies: 10 mM in methanol, two 15 W UV-B lamps, 24 °C; almost completed. On the procedure:
Using ^1H NMR spectroscopy, the formation of the Z diastereoisomer can be determined with confidence. Specifically, as previously done for 1a, methanol-d4 solutions of compounds 1b–e at a concentration of about 10 mM were irradiated with UV-B light in a Pyrex NMR tube and observed until the photostationary state (PSS) was reached.
The same procedure was followed for compounds 1f–h. However, due to the poor solubility in methanol at the concentrations required for ^1H NMR analysis, 1f–h was irradiated and monitored in an acetone-d6 solution. The diastereomeric E/Z ratio of the obtained PSS-1b–h was determined by calculating the area of the easily distinguishable signals assigned to the E and Z isomers (Figure 4).
The solution was irradiated with UV-B light until reaching the PSSUV-B (almost completed in 50–80 min). Subsequently, the PSSUV-B solution was irradiated under the same conditions with UV-C light generated using two lamps (15 Watt GT15T8 Hg UV-C tube), observing the photoconversion of the cis isomer into the trans isomer without the appearance of photodegradation.

For data set [5], the target named is T1, hAChE. Also noted: method as in PMID 35923722. The following applies: read-out: AChE IC50; previously reported values; ref [40]; listed as E-1; cited from earlier work.
Details of data set [6]: method as in PMID 35923722. To be noted: ref [40]; cited from earlier work.
Setting [7] is: human AChE, mean ± SD of three independent measurements, read-out: AChE IC50.

T2 sequence (P06276 29-602): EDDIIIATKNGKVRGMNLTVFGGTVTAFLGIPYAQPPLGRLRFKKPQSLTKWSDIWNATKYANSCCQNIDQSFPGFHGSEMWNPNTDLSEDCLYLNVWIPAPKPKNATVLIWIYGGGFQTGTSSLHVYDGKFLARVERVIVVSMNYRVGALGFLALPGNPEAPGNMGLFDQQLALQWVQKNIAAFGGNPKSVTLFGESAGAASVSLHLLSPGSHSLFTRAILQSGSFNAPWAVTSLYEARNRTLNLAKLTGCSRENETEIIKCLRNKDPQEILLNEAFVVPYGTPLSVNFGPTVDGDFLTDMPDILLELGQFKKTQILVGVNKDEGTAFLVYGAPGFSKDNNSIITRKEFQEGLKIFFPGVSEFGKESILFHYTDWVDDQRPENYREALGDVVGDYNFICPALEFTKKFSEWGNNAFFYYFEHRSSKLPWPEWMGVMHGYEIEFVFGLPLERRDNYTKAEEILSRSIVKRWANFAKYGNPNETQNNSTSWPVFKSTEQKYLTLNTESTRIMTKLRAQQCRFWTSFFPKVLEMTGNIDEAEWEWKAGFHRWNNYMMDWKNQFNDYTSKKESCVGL
Procedure for BChE from human serum: Human isoforms of ChEs (human recombinant AChE and BChE from human serum) and MAOs (from baculovirus-infected insect cells), purchased from Sigma Aldrich (Milan, Italy), were used for inhibition assays. Experiments were performed in 96-well plates (Greiner Bio-One, Kremsmünster, Austria) on the Infinite M1000 Pro plate reader (Tecan, Cernusco s.N., Italy), using already published protocols [46, 58, 59, 60].
Procedure for human recombinant MAO B: In MAOs’ inhibition assays, each test compound, at 10 μM concentration, was preincubated for 20 min at 37 °C with 50 μM kynuramine as the substrate in 0.1 M phosphate-buffered solution (PBS) pH 8.0 made 0.39 osmolar with KCl. After the addition of human recombinant MAO-A (250 U/mg) or MAO B (59 U/mg) and a further 30 min of incubation, NaOH was added, and the fluorescence read at 310/400 nm excitation/emission wavelength. […] For the kinetic study on the inhibition mechanism of MAO B, three diverse scalar concentrations of the inhibitor and seven concentrations of kynuramine were used [40, 61, 62].

Turning to `CCN(Cc1ccccc1)Cc1ccc(/C=C2\Cc3cc(OC)ccc3C2=O)cc1` [Compound E-1h, (E)-2-(4-((Benzyl(ethyl)amino)methyl)benzylidene)-5-methoxy-2,3-dihydro-1H-inden-1-one], the “decrease of AChE inhibitory potency on photoisomerization to Z (75% Z in PSS)” value at hAChE [1] (PSS mixture versus pure E isomer) is on record as “about 30%”. Further, the 50% inhibitory concentration (IC50) is 39 ± 1 nM at hAChE [1] (setting [7]), 7 ± 0.01 µM at BChE from human serum and 355 ± 134 nM on human recombinant MAO B. Moreover, the inhibition at 10 µM on human recombinant MAO-A is 13%. The “mechanism of AChE inhibition” value on hAChE [2] (Lineweaver–Burk, both Vmax and Km changed) is given as “mixed-type inhibition”. In addition, at hAChE [2] (replot of slopes versus [I], x-axis intercept, hAChE 0.2 U/mL, acetylthiocholine iodide 50–300 μM), the Ki turned out to be 100 nM.
Consider `COc1ccc2c(c1)C/C(=C\c1ccc(CN(C)Cc3ccccc3)cc1)C2=O` [Compound E-1g, (E)-2-(4-((Benzyl(methyl)amino)methyl)benzylidene)-5-methoxy-2,3-dihydro-1H-inden-1-one], for which the IC50 came to 115 ± 4 nM on hAChE [1] (setting [7]), 9.9 ± 0.11 µM against BChE from human serum and 292 ± 60 nM on human recombinant MAO B. Moreover, on human recombinant MAO-A, the inhibition at 10 µM amounted to 39%.
Take `CCN(Cc1ccccc1)Cc1ccc(C=C2Cc3cc(OC)ccc3C2=O)cc1` [E/Z-1h]: the IC50 worked out at 53 ± 6 nM on hAChE [1] (setting [7]), 10 ± 0.32 µM against BChE from human serum and 358 ± 8 nM at human recombinant MAO B. Also, the inhibition at 10 µM at human recombinant MAO-A came to 39%.
For `COc1ccc2c(c1)C/C(=C\c1ccc(CN(C(C)C)C(C)C)cc1)C2=O` [Compound E-1f, (E)-2-(4-((Diisopropylamino)methyl)benzylidene)-5-methoxy-2,3-dihydro-1H-inden-1-one], the IC50 on hAChE [1] (setting [7]) amounted to 261 ± 14 nM; against BChE from human serum, 10 ± 0.85 µM. For the same compound, the inhibition at 10 µM at human recombinant MAO-A came to 22%.
As to `CCN(CC)Cc1ccc(/C=C2/Cc3cc(OC)ccc3C2=O)cc1` [Compound Z-1a], in data set [3], the “half-life in MeOH at room temperature” value was 47 days.
Consider `CCCN(CCC)Cc1ccc(/C=C2\Cc3cc(OC)ccc3C2=O)cc1` [Compound E-1c, (E)-2-(4-((Dipropylamino)methyl)benzylidene)-5-methoxy-2,3-dihydro-1H-inden-1-one], for which the IC50 worked out at 174 ± 17 nM at hAChE [1] (setting [7]) and 479 ± 81 nM at human recombinant MAO B. Further, the inhibition at 10 µM on BChE from human serum is 28%; on human recombinant MAO-A, 15%. Further, the “time to reach PSS under UV-B irradiation” value in data set [4] was 50 to 80 min.
Regarding `CCN(CC)Cc1ccc(C=C2Cc3cc(OC)ccc3C2=O)cc1` (mixture of isomers) [E/Z-1a], the IC50 at hAChE [1] was 780 ± 13 nM; at human recombinant MAO B it was 1590 ± 40 nM. Moreover, the inhibition at 10 µM amounted to 28% on BChE from human serum and 45% at human recombinant MAO-A.
On to `COc1ccc2c(c1)CC(=Cc1ccc(CN(C)C)cc1)C2=O` [E/Z-1b], for which the values for the IC50 on hAChE [1] (setting [7]) and on human recombinant MAO B were 915 ± 138 nM and 839 ± 123 nM, respectively. The results for the inhibition at 10 µM at BChE from human serum and at human recombinant MAO-A were 25% and 32%, respectively.
On to `COc1ccc2c(c1)CC(=Cc1ccc(CN(C)Cc3ccccc3)cc1)C2=O` [E/Z-1g], for which the figures for the IC50 at hAChE [1] (setting [7]) and on human recombinant MAO B were 135 ± 62 nM and 354 ± 70 nM, respectively. Moreover, the inhibition at 10 µM at BChE from human serum turned out to be 40%; at human recombinant MAO-A, 49%.
As to `CCCCN(C)Cc1ccc(C=C2Cc3cc(OC)ccc3C2=O)cc1` [E/Z-1e], the IC50 at hAChE [1] (setting [7]) turned out to be 1360 ± 60 nM; at human recombinant MAO B, 651 ± 61 nM. For the same compound, on human recombinant MAO-A, the inhibition at 10 µM is 25%.
`CCCN(CCC)Cc1ccc(C=C2Cc3cc(OC)ccc3C2=O)cc1` [E/Z-1c]: the IC50 at hAChE [1] (setting [7]) was 295 ± 45 nM; at human recombinant MAO-A it was ~3 µM and 2.98 µM; on human recombinant MAO B, 743 ± 48 nM. At BChE from human serum, the inhibition at 10 µM stood at 20%.
In the case of `CCCCN(CCCC)Cc1ccc(C=C2Cc3cc(OC)ccc3C2=O)cc1` [E/Z-1d], the values for the IC50 at hAChE [1] (setting [7]) and at human recombinant MAO B were 2280 ± 210 nM and 382 ± 6 nM, respectively. In addition, the inhibition at 10 µM at human recombinant MAO-A stood at 37%.
For the compound `COc1ccc2c(c1)CC(=Cc1ccc(CN(C(C)C)C(C)C)cc1)C2=O` [E/Z-1f], the IC50 on hAChE [1] (setting [7]) is 1410 ± 90 nM; on human recombinant MAO-A, ~3 µM and 3.19 µM; on human recombinant MAO B, 241 ± 26 nM. Moreover, the inhibition at 10 µM at BChE from human serum turned out to be 20%.
Consider `CCCCN(C)Cc1ccc(/C=C2\Cc3cc(OC)ccc3C2=O)cc1` [Compound E-1e, (E)-2-(4-((Butyl(methyl)amino)methyl)benzylidene)-5-methoxy-2,3-dihydro-1H-inden-1-one], for which the IC50 at hAChE [1] (setting [7]) worked out at 102 ± 19 nM; on BChE from human serum, 5 ± 0.45 µM; at human recombinant MAO B, 178 ± 86 nM. In addition, the inhibition at 10 µM at human recombinant MAO-A stood at 20%.
`CCCCN(CCCC)Cc1ccc(/C=C2\Cc3cc(OC)ccc3C2=O)cc1` [Compound E-1d, (E)-2-(4-((Dibutylamino)methyl)benzylidene)-5-methoxy-2,3-dihydro-1H-inden-1-one]: the IC50 on hAChE [1] (setting [7]) is 990 ± 50 nM; at human recombinant MAO B, 338 ± 36 nM. For the same compound, the inhibition at 10 µM is 28% on BChE from human serum and 12% on human recombinant MAO-A.
Turning to `CCN(CC)Cc1ccc(/C=C2\Cc3cc(OC)ccc3C2=O)cc1` [Compound E-1a, 2-(4-((diethylamino)methyl)benzylidene)-5-methoxy-2,3-dihydro-1H-inden-1-one], the IC50 is 105 ± 5 nM against hAChE [1], 10 ± 0.15 µM on BChE from human serum, 260 ± 12 nM at human recombinant MAO B and 110 nM on hAChE [5]. Besides, at human recombinant MAO-A, the inhibition at 10 µM was determined as 33%. Moreover, the “Z-isomer in the photostationary state (PSS) after UV-B light” value in data set [6] is reported as 75%.
As to `COc1ccc2c(c1)C/C(=C\c1ccc(CN(C)C)cc1)C2=O` [Compound E-1b, (E)-2-(4-((Dimethylamino)methyl)benzylidene)-5-methoxy-2,3-dihydro-1H-inden-1-one], the IC50 on hAChE [1] (setting [7]) was 155 ± 10 nM; at human recombinant MAO B it was 686 ± 59 nM. For the same compound, on human recombinant MAO-A, the inhibition at 10 µM came to 33%.

A word on the IC50: it is the concentration that gives 50% inhibition. Broadly, the inhibition is the relative decrease from the control value, in per cent. As usually defined, the Ki is the equilibrium dissociation constant of an inhibitor or competing ligand from its target.
